Data as given in patent publication US20170073337A1, “DIHYDROTHIAZINE AND DIHYDROOXAZINE DERIVATIVES HAVING BACE1 INHIBITORY ACTIVITY” (Shionogi & Co., Ltd., priority 2014, published 2017).
≈ marks a conversion by molar mass, not a printed value. Like-named read-outs stand apart in the source and are kept apart here.

Assays:
[1] = biological target: T1, human ether-a-go-go related gene (hERG) channel (Homo sapiens, UniProt Q12809); assay: hERG test; type: cell-based; details: % inhibition of IKr tail peak current at 3 uM; CHO cells expressing hERG
T1 construct: expressed in transfected cells; host or cells: CHO cells
Method in brief: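 Automated whole-cell patch clamp was run on CHO cells carrying human hERG, held at −80 mV. Current was recorded during the −50 mV repolarization (2 s) that followed a 2 s +20 mV step, after a −50 mV leak pulse.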

Metabolic stability test = type: in vitro ADME; details: human liver microsomes, 37° C., 30 minutes, NADPH
Method in brief: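 Parent compound was measured by LC/MS/MS or SPE/MS after a methanol/acetonitrile quench and reported as % remaining, with the 0 min sample set to 100%. Incubations ran 30 min at 37 °C in pH 7.4 Tris buffer containing pooled human liver microsomes at 0.5 mg protein/mL and 1 mmol/L NADPH.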

CYP3A4 = biological target: T2, CYP3A4 (Homo sapiens, UniProt P08684); assay: CYP inhibition test (CYP3A4); type: in vitro ADME; details: pooled human liver microsomes; terfenadine hydroxylation
T2 construct: The commercially available pooled human liver microsomes are used as an enzyme resource; from tissue; host or cells: pooled human liver microsomes
Method in brief: (§1)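 Pooled human liver microsomes (0.2 mg protein/mL) were incubated at 37 °C with NADPH, compound at 1, 5, 10, 20 μmol/L and marker substrates: tolbutamide 100 μmol/L (2C9), S-mephenytoin 50 μmol/L (2C19), dextromethorphan 5 μmol/L (2D6), terfenadine 1 μmol/L (3A4). Metabolites were measured by LC/MS/MS; IC50 came from logistic fitting against DMSO control.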

CYP1A2 = biological target: T3, CYP1A2 (Homo sapiens, UniProt P05177); assay: CYP inhibition test (CYP1A2); type: in vitro ADME; details: pooled human liver microsomes; 7-ethoxyresorufin O-deethylation
T3 construct: The commercially available pooled human liver microsomes are used as an enzyme resource; from tissue; host or cells: pooled human liver microsomes
T3 sequence (P05177 1-516): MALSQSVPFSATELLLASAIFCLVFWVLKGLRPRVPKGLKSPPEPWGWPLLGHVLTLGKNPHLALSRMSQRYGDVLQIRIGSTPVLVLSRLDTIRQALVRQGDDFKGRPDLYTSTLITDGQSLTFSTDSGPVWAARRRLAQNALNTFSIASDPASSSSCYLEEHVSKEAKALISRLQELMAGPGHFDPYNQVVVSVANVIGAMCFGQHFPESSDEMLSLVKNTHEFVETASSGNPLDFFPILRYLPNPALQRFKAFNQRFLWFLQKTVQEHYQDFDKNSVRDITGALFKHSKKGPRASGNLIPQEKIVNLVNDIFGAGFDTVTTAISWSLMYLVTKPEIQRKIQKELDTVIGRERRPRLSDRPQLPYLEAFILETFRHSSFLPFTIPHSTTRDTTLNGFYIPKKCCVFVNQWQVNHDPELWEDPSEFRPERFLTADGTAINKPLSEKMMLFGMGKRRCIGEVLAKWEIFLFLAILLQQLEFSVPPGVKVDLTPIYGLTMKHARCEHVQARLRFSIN
Method in brief: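 Inhibition of CYP1A2 was measured in commercially available pooled human liver microsomes (0.2 mg protein/mL) using 7-ethoxyresorufin O-deethylation with 0.5 μmol/L ethoxyresorufin. Test compound at 1, 5, 10, 20 μmol/L in […] Hepes buffer was incubated at 37° C. after NADPH addition; methanol/acetonitrile=1/1 (v/v) stopped the reaction, and resorufin was read fluorescently.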

CYP2C19 = biological target: T4, CYP2C19 (Homo sapiens, UniProt P33261); assay: CYP inhibition test (CYP2C19); type: in vitro ADME; details: pooled human liver microsomes; mephenytoin 4′-hydroxylation
T4 construct: The commercially available pooled human liver microsomes are used as an enzyme resource; from tissue; host or cells: pooled human liver microsomes
Method in brief: as §1

Solubility test = type: physicochemical
Method in brief: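 Dissolved concentration determined by LC/MS or SPE/MS (absolute calibration) in diluted filtrates, after 2 μL of 10 mmol/L DMSO stock was added to 198 μL JP 1st or JP 2nd fluid and equilibrated either 1 h with shaking at room temperature or 16 h standing at 25 °C.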

[2] = JP 1st fluid, pH 1.2, simulated gastric fluid, kinetic from dmso stock, read-out: JP1
[3] = solubility in JP 2nd fluid B, 1% DMSO, *2: shaken for 1 hour at room temperature, read-out: JP2_μM
[4] = JP 1st fluid, 25 °C, pH 1.2, simulated gastric fluid, kinetic from dmso stock, read-out: JP1
[5] = JP 2nd fluid A, 25 °C, pH 6.8, aqueous buffer, kinetic from dmso stock, read-out: JP2_μM
[6] = JP 2nd fluid B, pH 6.8, aqueous buffer, kinetic from dmso stock, read-out: JP2_μM
[7] = JP 2nd fluid A, pH 6.8, aqueous buffer, kinetic from dmso stock, read-out: JP2_μM

T4 sequence (P33261 whole entry): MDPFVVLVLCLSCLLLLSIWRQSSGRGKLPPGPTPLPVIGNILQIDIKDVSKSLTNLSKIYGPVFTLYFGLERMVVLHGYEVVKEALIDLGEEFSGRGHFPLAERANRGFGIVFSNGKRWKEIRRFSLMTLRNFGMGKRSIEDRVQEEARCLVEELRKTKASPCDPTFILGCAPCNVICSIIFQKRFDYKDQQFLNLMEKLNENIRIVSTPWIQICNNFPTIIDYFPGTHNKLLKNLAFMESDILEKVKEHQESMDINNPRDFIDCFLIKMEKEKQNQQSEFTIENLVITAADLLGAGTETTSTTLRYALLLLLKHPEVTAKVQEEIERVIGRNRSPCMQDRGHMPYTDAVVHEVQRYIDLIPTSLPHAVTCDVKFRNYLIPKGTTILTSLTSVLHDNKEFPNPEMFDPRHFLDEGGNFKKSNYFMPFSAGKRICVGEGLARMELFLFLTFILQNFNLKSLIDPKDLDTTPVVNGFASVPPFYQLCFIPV
T1 sequence (Q12809 whole entry): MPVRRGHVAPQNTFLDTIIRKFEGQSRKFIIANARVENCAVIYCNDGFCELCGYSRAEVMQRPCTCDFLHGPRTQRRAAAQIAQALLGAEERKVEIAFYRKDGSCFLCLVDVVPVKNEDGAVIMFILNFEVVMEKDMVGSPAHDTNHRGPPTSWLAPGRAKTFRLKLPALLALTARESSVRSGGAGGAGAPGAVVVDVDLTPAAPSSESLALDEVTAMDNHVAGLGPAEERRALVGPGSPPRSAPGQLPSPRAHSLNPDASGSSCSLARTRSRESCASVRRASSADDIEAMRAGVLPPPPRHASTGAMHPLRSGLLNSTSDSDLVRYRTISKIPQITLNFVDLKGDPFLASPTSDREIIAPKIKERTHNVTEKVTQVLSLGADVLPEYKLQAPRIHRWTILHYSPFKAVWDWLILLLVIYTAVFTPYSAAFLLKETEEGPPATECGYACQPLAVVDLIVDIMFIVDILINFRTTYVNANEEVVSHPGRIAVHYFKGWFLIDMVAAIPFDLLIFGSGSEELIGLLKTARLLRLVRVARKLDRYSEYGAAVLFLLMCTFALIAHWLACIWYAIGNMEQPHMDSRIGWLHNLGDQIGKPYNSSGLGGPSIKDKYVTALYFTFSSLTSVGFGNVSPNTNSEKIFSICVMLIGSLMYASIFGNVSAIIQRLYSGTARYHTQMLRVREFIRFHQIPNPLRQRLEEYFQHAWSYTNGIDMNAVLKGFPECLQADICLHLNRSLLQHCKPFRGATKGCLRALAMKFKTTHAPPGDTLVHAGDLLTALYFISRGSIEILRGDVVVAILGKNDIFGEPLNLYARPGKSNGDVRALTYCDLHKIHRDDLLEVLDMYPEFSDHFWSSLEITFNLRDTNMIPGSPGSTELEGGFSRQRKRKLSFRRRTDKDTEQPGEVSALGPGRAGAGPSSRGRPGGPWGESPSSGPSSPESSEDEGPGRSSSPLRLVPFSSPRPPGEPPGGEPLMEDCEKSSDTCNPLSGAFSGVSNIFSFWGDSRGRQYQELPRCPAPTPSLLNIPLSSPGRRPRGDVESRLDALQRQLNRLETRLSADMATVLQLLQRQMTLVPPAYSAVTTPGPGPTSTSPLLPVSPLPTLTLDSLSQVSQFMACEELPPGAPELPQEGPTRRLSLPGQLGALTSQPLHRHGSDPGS
T2 sequence (P08684 whole entry): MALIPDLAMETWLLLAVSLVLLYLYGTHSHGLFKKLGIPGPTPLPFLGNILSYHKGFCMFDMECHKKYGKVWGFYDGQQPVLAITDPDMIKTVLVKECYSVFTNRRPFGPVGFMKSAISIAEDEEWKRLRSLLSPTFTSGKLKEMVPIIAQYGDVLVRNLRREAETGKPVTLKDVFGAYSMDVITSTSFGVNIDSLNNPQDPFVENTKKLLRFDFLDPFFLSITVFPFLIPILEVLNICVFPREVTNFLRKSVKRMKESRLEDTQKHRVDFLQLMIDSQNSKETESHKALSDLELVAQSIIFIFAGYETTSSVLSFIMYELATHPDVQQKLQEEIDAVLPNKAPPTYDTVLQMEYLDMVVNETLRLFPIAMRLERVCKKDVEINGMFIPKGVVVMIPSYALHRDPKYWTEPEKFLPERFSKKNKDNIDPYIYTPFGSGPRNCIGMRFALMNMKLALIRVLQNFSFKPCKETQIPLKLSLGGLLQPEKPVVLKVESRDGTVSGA

SMILES | remaining % (Metabolic stability test) [%] | IC50 (CYP3A4) [µM] | IC50 (CYP1A2) [µM] | IC50 (CYP2C19) [µM] | solubility kinetic at 1 h (Solubility test; [2]) [µM] | solubility kinetic at 16 h (Solubility test; [3]) [µM] | solubility kinetic at 16 h (Solubility test; [4]) [µM] | solubility kinetic at 16 h (Solubility test; [5]) [µM] | solubility kinetic at 1 h (Solubility test; [6]) [µM] | solubility kinetic at 1 h (Solubility test; [7]) [µM] | hERG_3 uM_% [1] [%]
C[C@]1(c2cc(NC(=O)c3ccc(F)cn3)ccc2F)N=C(N)O[C@H](CF)[C@@H]1OCC(F)(F)F [Compound I-11] | 104 | ≥ 20 | ≥ 20 | ≥ 20 | – | – | 42.7 (≈ 20.3 µg/mL) | > 50 | – | – | 42.5
CC(F)(F)[C@H]1OC(N)=N[C@](C)(c2cc(NC(=O)c3cnc(OCC(F)F)cn3)ccc2F)[C@H]1F [Compound I-77] | 93.1 | – | ≥ 20 | ≥ 20 | > 50 | – | – | – | 11.1 (≈ 5.45 µg/mL) | – | 44.1
CC(F)(F)[C@H]1OC(N)=N[C@](C)(c2cc(NC(=O)c3cnc(OCC(F)(F)F)cn3)ccc2F)[C@H]1F [Compound I-75] | 85.2 | – | ≥ 20 | ≥ 20 | > 50 | – | – | – | 3 (≈ 1.53 µg/mL) | – | 21.3
C[C@H]1SC(N)=N[C@](C)(c2cc(NC(=O)c3cnc(C(F)F)cn3)ccc2F)[C@H]1F [Compound I-65] | 96.5 | ≥ 20 | – | ≥ 20 | > 50 | >50 | – | – | – | – | 28
C[C@H]1SC(N)=N[C@](C)(c2cc(NC(=O)c3ccc(F)cn3)ccc2F)C12CC(F)(F)C2 [Compound I-63] | 75.8 | – | ≥ 20 | ≥ 20 | > 50 | >50 | – | – | – | – | 53.2
COc1cnc(C(=O)Nc2ccc(F)c([C@@]3(C)N=C(N)O[C@H](C(F)(F)C4CC4)[C@@H]3F)c2)cn1 [Compound I-83] | 55.3 | – | ≥ 20 | ≥ 20 | > 50 | – | – | – | 29.6 (≈ 13.8 µg/mL) | – | 18.1
COc1ccc(C(=O)Nc2ccc(F)c([C@@]3(C)N=C(N)S[C@H](C)[C@@H]3F)c2)nc1 [Compound I-50] | – | ≥ 20 | ≥ 20 | ≥ 20 | > 50 | >50 | – | – | – | – | 34.3
C[C@H]1SC(N)=N[C@](C)(c2cc(NC(=O)c3ncc(C#N)cc3Cl)ccc2F)[C@H]1F [Compound I-64] | 80.3 | ≥ 20 | – | ≥ 20 | > 50 | >50 | – | – | – | – | 41.3
C[C@H]1[C@@H](C(F)(F)F)OC(N)=N[C@]1(C)c1cc(NC(=O)c2cnc(OCF)cn2)ccc1F [Compound I-30] | – | ≥ 20 | ≥ 20 | ≥ 20 | – | – | 39.2 (≈ 18 µg/mL) | > 50 | – | – | 15.1
COc1cnc(C(=O)Nc2ccc(F)c([C@@]3(C)N=C(N)SCC34CC(F)(F)C4)c2)cn1 [Compound I-55] | – | ≥ 10 | ≥ 20 | ≥ 20 | > 50 | >50 | – | – | – | – | 39.5
COc1cnc(C(=O)Nc2ccc(F)c([C@@]3(C)N=C(N)O[C@H]([C@H](C)F)[C@@H]3F)c2)cn1 [Compound I-17] | – | ≥ 20 | ≥ 20 | ≥ 20 | 33.9 (≈ 14.4 µg/mL) | – | – | – | – | > 50 | 19.5
C[C@H]1[C@@H](C(F)(F)F)OC(N)=N[C@]1(C)c1cc(NC(=O)c2cnc(OCF)cn2)ccc1F [Compound I-41] | 105 | – | – | – | > 50 | – | – | – | – | > 50 | 24.8
C[C@H]1[C@@H](C(F)F)OC(N)=N[C@]1(C)c1cc(NC(=O)c2ccc(C#N)cn2)ccc1F [Compound I-31] | 85 | ≥ 20 | – | ≥ 20 | – | – | 38.8 (≈ 16.2 µg/mL) | > 50 | – | – | 27.4
C[C@]1(c2cc(NC(=O)c3ccc(C#N)cn3)ccc2F)N=C(N)O[C@H]2[C@@H]1OCC2(F)F [Compound I-35] | – | ≥ 20 | ≥ 20 | ≥ 20 | – | – | > 50 | > 50 | – | – | 41.1
C[C@@]1(c2cc(NC(=O)c3ccc(C#N)cn3)ccc2F)C[C@@](C)(C(F)(F)F)OC(N)=N1 [Compound I-7] | 82 | – | – | – | – | – | > 50 | > 50 | – | – | 47.4

More lines, main results first:

remaining % (Metabolic stability test) [%] | IC50 (CYP3A4) [µM] | IC50 (CYP1A2) [µM] | IC50 (CYP2C19) [µM] | solubility kinetic at 1 h (Solubility test; [2]) [µM] | solubility kinetic at 16 h (Solubility test; [3]) [µM] | solubility kinetic at 16 h (Solubility test; [4]) [µM] | solubility kinetic at 16 h (Solubility test; [5]) [µM] | solubility kinetic at 1 h (Solubility test; [6]) [µM] | solubility kinetic at 1 h (Solubility test; [7]) [µM] | SMILES | hERG_3 uM_% [1] [%]
74.4 | ≥ 20 | ≥ 20 | ≥ 20 | > 50 | >50 | – | – | – | – | COC[C@H]1SC(N)=N[C@](C)(c2cc(NC(=O)c3cnc(OCF)cn3)ccc2F)[C@H]1F [Compound I-91] | 11.3
95.5 | ≥ 20 | ≥ 20 | ≥ 20 | – | – | 38.8 (≈ 17 µg/mL) | > 50 | – | – | CO[C@H]1[C@@H](CF)OC(N)=N[C@]1(C)c1cc(NC(=O)c2cnc(OCF)cn2)ccc1F [Compound I-24] | 6.7
76.5 | ≥ 10 | ≥ 20 | ≥ 20 | > 50 | >50 | – | – | – | – | C[C@H]1SC(N)=N[C@](C)(c2cc(NC(=O)c3ccc(OCF)cn3)ccc2F)[C@H]1F [Compound I-51] | 39.4
96.5 | – | ≥ 20 | ≥ 20 | > 50 | >50 | – | – | – | – | C[C@]1(c2cc(NC(=O)c3cnc(OCF)cn3)ccc2F)N=C(N)O[C@H](C(F)(F)C2CC2)[C@@H]1F [Compound I-82] | 17.5
97.8 | – | ≥ 20 | ≥ 20 | > 50 | – | – | – | – | 8.3 (≈ 3.95 µg/mL) | C[C@H]1SC(N)=N[C@](C)(c2cc(NC(=O)c3cnc(OCC(F)(F)F)cn3)ccc2F)[C@H]1F [Compound I-46] | 33.4
69 | – | ≥ 20 | ≥ 20 | > 50 | >50 | – | – | – | – | CC[C@H]1SC(N)=N[C@](C)(c2cc(NC(=O)c3ccc(OCF)cn3)ccc2F)[C@H]1F [Compound I-67] | 56.5
93.2 | – | ≥ 20 | ≥ 20 | 47.2 (≈ 21.1 µg/mL) | – | – | – | 0.6 (≈ 0.269 µg/mL) | – | C[C@H]1SC(N)=N[C@](C)(c2cc(NC(=O)c3cnc(OCC4CC4)cn3)ccc2F)[C@H]1F [Compound I-85] | 41.4
– | ≥ 10 | ≥ 20 | ≥ 20 | > 50 | >50 | – | – | – | – | COCC(F)(F)[C@H]1OC(N)=N[C@](C)(c2cc(NC(=O)c3cnc(OCF)cn3)ccc2F)[C@H]1F [Compound I-79] | 7.8
